# Earlier results as cited in patent US20220081482A1, “ANTICANCER COMPOSITIONS COMPRISING IMMUNE CHECKPOINT INHIBITORS” (priority 2018, published 2022).
# Conditions: orally administered to rats
smiles,measurement,value
CN(C)C(=N)N=C(N)N [metformin],LD50,"1,450 mg/kg"
